Reference: patent US12280047B2, “Treatment of aneurysms” (Georgia State Research Foundation, Inc., priority 2017, dated 2025)

Key:
ApoE−/− mice [1] = experiment: OMBA, NBA and 1MT treating AngII-induced abdominal aortic aneurysm (Example 15); assay type: in vivo; settings: for Incidence of AAA: ApoE−/− mice, AngII 1,000 ng/kg/min four weeks, then drug in drinking water 6 weeks, mice with AAA/group size
Protocol: To test the effect of other Kynurenine pathway inhibitors on treating AngII-induced abdominal aortic aneurysm, male ApoE^−/− mice at age 8 weeks were infused with AngII (1,000 ng/kg/min) or saline (0.9% sodium chloride) by Alzet osmotic pumps for four weeks. Four weeks later, Ang-II treated mice were divided into […] groups of 18 and administered o-methoxybenzo ylalanine (OMB), (m-nitrobenzoyl)alanine (NBA), 1-methyltryptophan (1MT) or vehicle control (water) by drinking water for 6 weeks.
To quantify AAA incidence and size, the maximum width of abdominal aorta was measured with Image Pro Plus software (Media Cybernetics). Aneurysm incidence was quantified based on a definition of aneurysm as an external width of the suprarenal aorta that was increased by 50% or greater compared with aortas from saline-infused mice. The average diameter of the normal suprarenal aorta in control mice is 0.8 mm. Therefore, a threshold of 1.22 mm as evidence of aneurysm formation was set. […] Incidence of AAA among the various groups of mice is outlined in FIG. 31A and Table 5 below.

MMP2 [2] = experiment: MMP2 expression and activity in aortas of 3-HAA-injected mice; assay type: in vivo; settings: 3-HAA 200 mg/kg/d i.p., 6 weeks; ApoE−/− and ApoE−/−/IDO−/− mice; vs vehicle-treated mice
Protocol: ApoE^−/− and ApoE^−/−/IDO^−/− mice at age 8 weeks on a chow diet were intraperitoneally injected with 3-HAA (200 mg/kg. d) or vehicle for 6 weeks. 3-HAA was dissolved in […] and further diluted in Captisol (Captisol Technology).
Circ Res. (2014) 114:480-92.
The evaluation of MMP activities in cells and aortas was performed as described previously in: Satoh K, et al., Cyclophilin A enhances vascular oxidative stress and the development of angiotensin II-induced aortic aneurysms. Nat Med. (2009) 15:649-56; Becerra A, et al., Increased activity of indoleamine 2,3-dioxygenase in serum from acutely infected dengue patients linked to gamma interferon antiviral function. J Gen Virol. (2009) 90:810-7; Holmes E W. Determination of serum kynurenine and hepatic tryptophan dioxygenase activity by high-performance liquid chromatography. Anal Biochem. (1988) 172:518-25; Forrest C M, et al., Kynurenine pathway metabolism in patients with osteoporosis after 2 years of drug treatment. Clin Exp Pharmacol Physiol. […]
To ascertain the effect of 3-HAA in MMP2 expression in vivo, ApoE^−/− and ApoE^−/−/IDO^−/− mice were intra-peritoneally treated with vehicle or 3-HAA (200 mg/kg/d) for 6 weeks. Corresponding increases in 3-HAA were detected in the plasma (FIG. 6F) and aortas (FIGS. 6D and 6E) of 3-HAA-injected ApoE^−/− and ApoE^−/−/IDO^−/− mice. […]

MMP2 [3] = experiment: MMP2 in isolated mouse aortas incubated with 3-HAA ex vivo; settings: 400 μM 3-HAA, 48 hours, aortas from ApoE−/− and ApoE−/−/IDO−/− mice
HASMCs = experiment: MMP2 expression and activity in HASMCs incubated with metabolites of Trp degradation; assay type: cell-based, human
Source text: J Immunol. […] Neuropharmacology. […] Proc Natl Acad Sci USA.

ApoE−/− mice [4] = experiment: Serum kynurenine pathway metabolites in AngII mice treated with OMBA, NBA, 1MT (Example 15); assay type: in vivo
Protocol: The culture medium was centrifuged to pellet the cells to avoid contamination from the cells, and the supernatant was filtered ([…]) before use. Sample preparation for plasma was operated as described previously (Becerra A, et al., Increased activity of indoleamine 2,3-dioxygenase in serum from acutely infected dengue patients linked to gamma interferon antiviral function. J Gen Virol. (2009) 90:810-7; Holmes E W. Determination of serum kynurenine and hepatic tryptophan dioxygenase activity by high-performance liquid chromatography. Anal Biochem. (1988) 172:518-25). 200 μL of plasma was mixed by vortex in a small polyethylene conical tube with 1/10 volume of ice cold 2.4 mol/L perchloric acid. The cloudy suspension was chilled on ice for 15 min and then centrifuged at 10,000 g for 2 min. The clear protein-free supernatant was analyzed directly.
Circ Res. (2014) 114:480-92. Kyn content was estimated along with standards ranging from 0.5-20 μM L-kynurenine (Sigma, K8625), and Trp level was assessed along standards ranging from 1-25 μM DL-Tryptophan (Sigma, 162698), using a GraceVydac C18 column (250×4.6 mm, 5.0 The mobile phase was 20 mM sodium acetate at pH=4.5. The flow rate was 1 ml/min. The column effluent was monitored at 360 nm (Kyn) and 280 nm (Trp) by a UV detector.
3-HAA was measured by HPLC as described previously in Forrest C M, et al., Kynurenine pathway metabolism in patients with osteoporosis after 2 years of drug treatment. Clin Exp Pharmacol Physiol. (2006) 33:1078-87. 3-HAA content was estimated along with standards ranging from 1-200 nM 3-Hydroxyanthranilic acid (Santa Cruz, sc-216460), using a GraceVydac C18 column (250×4.6 mm, 5.0 The mobile phase consisted of 25 mM sodium acetate (pH=5.5) and methanol (90:10 v/v) was pumped at a flow rate of 1 ml/min. Fluorescent detection at excitation 320 nm and emission 420 was used. […]

[5] = concentration- and time-dependent manner

## Cn1cc(C[C@H](N)C(=O)O)c2ccccc21 [1MT, 1-methyltryptophan]
ApoE−/− mice [1]
  Incidence of AAA: 9/18

## Nc1c(O)cccc1C(=O)O [3-HAA, 3-Hydroxyanthranilic acid]
MMP2 [2]
  MMP2 expression and activity in aortas: remarkably increased
MMP2 [3]
  MMP2 expression and activity in isolated aortas: significantly upregulated
HASMCs; 48 hours, Kyn 100 μM, 3-HK 100 μM, KA 75 μM, AA 100 μM, 3-HAA 200 μM, XA 200 μM, QA 1 mM, immunoblot and zymography
  MMP2 expression and activity: dramatic increase
HASMCs; [5]
  expression and activity of MMP2: induced
  phosphorylation of Elk1 at Ser383: induced

## COc1ccccc1C(=O)NC(C)C(=O)O (stereo not drawn) [OMBA, o-Methoxybenzoylalanine]
ApoE−/− mice [4]; AngII-administered mice, compared to control mice
  Serum levels of tryptophan: decreased
ApoE−/− mice [4]; compared to AngII alone
  Levels of anthranilic acid (serum): elevated
  Levels of kynurenic acid (serum): elevated
ApoE−/− mice [1]; AngII-administered mice
  aortic weight to body weight ratio: lower
  maximal abdominal aortic diameter: lower
ApoE−/− mice [1]
  Incidence of AAA: 5/18
